Square brackets hold non-standard residues; d marks the D form. Peptide text beside a SMILES is read from it. * marks the point of attachment. Sta = CC(C)C[C@H](N)[C@@H](O)CC(=O)O; Isovaleryl = CC(C)CC(=O)*
Assays:
13D11 [1] = test: Inhibition of 13D11-catalyzed hydrolysis by haptens/inhibitors; type: biochemical, mouse
Description: Antibody 13D11 (14.5 μM) was re-screened for activity toward 10 (nominally 500 μM) in the absence and presence of 63 μM (RT-2 hapten)(D/L mixture).
Until this point, 13D11 antibody had been purified by Protein A and DEAE chromatography. To determine whether the activity toward 10 was due to a contaminating enzyme, 13D11 was further purified on a Mono Q column (Pharmacia) by FPLC.
Hapten Ki was determined by quantitating the effect of the concentration of 1b or 1c on the velocity of 13D11 hydrolysis of 2b. Rates obtained at fixed antibody and substrate concentrations were fitted to the equation; V1/Vo=(2[Ab]−[l]−Ki′+{([l]+Ki′−2[Ab])^2+4Ki′2[Ab]}^0.5)/4[Ab], where Vi and Vo are, respectively, the velocities in the presence and absence of hapten, 2[Ab] is the total concentration of antibody combining sites, [l] is hapten concentration, Ki′=Ki/(1+[S]/Km), and Ki is the inhibition constant (S. Cha, Biochem. Pharmacol. 1975, 24, 2177).
Control experiments verified that the hydrolytic activity was not due to a contaminating protease. […] (The (L)-hapten spatially corresponds to the (D)-amide substrate.) The inhibition constant, Ki, was determined by an HPLC assay to be 14.0 (±+1.6) μM.
The substrate specificity of 13D11 was more rigorously determined by monitoring its activity towards the dansylated amides 9 and 10, dansylated esters 11 and 12, acetylated amides 13 and 14, and acetylated esters 15 and 16. The esterolytic activity of 13D11 with the dansylated or acetylated esters (45 μM-1.0 mM) was examined at 25° C. in an assay mixture containing MTEN, 0.1 mM EDTA, 0.1 mM PMSF, 0.01% NaN3, and 13D11 (7-14 μM). Aliquots were removed from the incubation mixtures every hour for 4 hours and kept in ice prior to analysis. The dansylated esters were analyzed by TLC while the acetylated esters were subjected to HPLC analysis. […] The observed esterase activity may be due to a trace of a contaminating enzyme in the antibody preparation.
The amidase activity of 13D11 was likewise examined using the same buffer system as the one mentioned above in the presence of 13D11 (17 μM), and the acetylated amide 13 or 14 (0.5-1.0 mM). […] The ability of 13D11 to discriminate between the dansylated amides 9 and 10 was investigated by determining the formation of the hydrolysis product by TLC. The reaction samples containing 150 μM of either amide 9 or 100 30 μM 13D11, with or without hapten 5 (0.5 mM) in the above buffer system were assayed after 5 days of incubation at 25° C. […] Thus, the activity of the catalytic antibody requires the alkyl linker that was present during immunization, and has a stereospecificity opposite of known natural proteolytic enzymes.
An important control in the examination of the catalytic activity of 13D11 IgG molecule is the retention of the haptenic and substrate binding abilities by its Fab′ fragment. Accordingly, the amidase activities of 13D11 (whole IgG molecule) and the 13D11 Fab′ fragment were compared. The reaction mixtures contained MTEN, 1 mM EDTA, 0.1 mM PMSF, 0.01% NaN3, 150 μM dansylated amide 9 or 100 μM 13D11 (IgG) or Fab′, with or without (assumed) hapten 5 (0.5 mM). […] The esterase activity for the Fab′ fragment was also examined in the above buffer system containing 100 μM of either ester 11 or 12, and 7 μM 13D11 (Fab′). Aliquots were removed at various time points and analyzed by TLC. […] The contaminating enzyme in the antibody solution may have been removed during the purification of the Fab′ fragment.

13D11 [2] = test: Effect of common protease inhibitors on the antibody-catalyzed reaction; type: biochemical, mouse; conditions: inhibitor concentrations sufficient to abolish the respective proteases
Description: Extensive purification of 13D11 was carried out. Monoclonal antibodies were purified from ascites using standard procedures of lipid extraction and ammonium sulfate precipitation followed by column chromatography on protein A, DEAE, Mono Q, and finally Alkyl Superose (Pharmacia, Piscataway, N.J.). Finally, nine common inhibitors of known proteases were tested at concentrations sufficient to completely abolish all for their effect on the antibody-catalyzed reaction.

| Compound | effect on amidolytic activity of 13D11 (13D11 [2]) | further results |
| --- | --- | --- |
| O=S(=O)(O)CCNC1CCCCC1 [CHES] | – | effect of buffer on hydrolysis of 10 by 13D11 (13D11 [1]; CHES buffer tried as an alternative to Tris): inhibit the hydrolysis |
| CC(=O)NCCCCCC(=O)NC(Cc1ccccc1)P(C)(=O)O (centres unmarked) [Compound 5] | – | Ki (13D11 [1]; 13D11 hydrolysis of 10, HPLC assay, read-out: inhibition constant, Ki): 14 µM; inhibition of esterase activity toward 11 in the 13D11 preparation (13D11 [1]; 25° C., MTEN): not inhibited; inhibition of 13D11 amidase activity toward 10 (13D11 [1]; hapten 5 0.5 mM, 5 days at 25° C., TLC): inhibition of its amidase activity; inhibition of amidase activities of 13D11 IgG and Fab′ (13D11 [1]; hapten 5 0.5 mM, dansylated amide 10): inhibited; inhibition of 13D11 by hapten enantiomers (13D11 [1]; hydrolysis of 10): inhibited 13D11 |
| CC(C)C[C@H](NC(=O)[C@H]1O[C@@H]1C(=O)O)C(=O)NCCCCN=C(N)N [Compound E-64] | Partial inhibition | – |
| O=C(O)CN(CCN(CC(=O)O)CC(=O)O)CC(=O)O [EDTA] | essentially unaffected | – |
| O=S(=O)(F)Cc1ccccc1 [PMSF] | essentially unaffected | – |
| CC(C)C[C@H](NC(=O)[C@@H](O)[C@H](N)Cc1ccccc1)C(=O)O [bestatin] | Partial inhibition | – |
| CC(=O)N[C@@H](CC(C)C)C(=O)N[C@@H](CC(C)C)C(=O)N[C@H](C=O)CCCNC(=N)N [leupeptin] | essentially unaffected | – |
| CC(C)CC(=O)N[C@H](C(=O)N[C@H](C(=O)N[C@@H](CC(C)C)[C@@H](O)CC(=O)N[C@@H](C)C(=O)N[C@@H](CC(C)C)[C@@H](O)CC(=O)O)C(C)C)C(C)C [pepstatin] (Isovaleryl-VV[Sta]A[Sta]-OH) | Partial inhibition | – |
| CC(C)C[C@H](NP(=O)(O)O[C@@H]1O[C@@H](C)[C@H](O)[C@@H](O)[C@H]1O)C(=O)N[C@@H](Cc1c[nH]c2ccccc12)C(=O)O [phosphoramidon] | essentially unaffected | – |
| aprotinin | essentially unaffected | – |
